Experimental data: patent US20230012368A1 (Hoffmann-La Roche Inc., priority 2018, published 2023)
Structures can show the parent of a compound that is named as a salt.

tested on: Acinetobacter baumannii ATCC 17978; test: Antimicrobial susceptibility testing: 90% growth inhibitory concentration (IC90) determination; format: cell-based; conditions: 90% growth inhibitory concentration; Acinetobacter baumannii ATCC17978; Iso-Sensitest broth, OD 600 nm over 16h; read-out: ATCC17978 IC90
Method in brief: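 Compounds serially twofold diluted (e.g. 50 to 0.097 μM final) in Iso-Sensitest broth, inoculated at ~5×10^(5) CFU/ml, incubated at 35±2° C. OD600 read every 20 minutes over 16h. IC90 taken as concentration inhibiting 90% of growth during logarithmic phase.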

Compound | IC90
CCc1cc(Nc2nccn3c(-c4ccc(OC(F)F)c(F)c4F)cnc23)ccc1C(=O)NC(CC)CCN (centres unmarked) [Example 317, N-(1-aminopentan-3-yl)-4-[[3-[4-(difluoromethoxy)-2,3-difluorophenyl]imidazo[1,2-a]pyrazin-8-yl]amino]-2-ethylbenzamide; hydrochloride] | 2500 nM

same assay, conditions: Acinetobacter baumannii, ATCC17978, 16 h, 90% growth inhibitory concentration; Acinetobacter baumannii ATCC17978; Iso-Sensitest broth, OD 600 nm over 16h; read-out: ATCC17978 IC90

Compound | IC90
COc1ccc(-c2cnc3c(Nc4ccc(C(=O)NCCCCCN5CCNCC5)c(C)c4)nccn23)cc1F [Example 272, 4-[[3-(3-fluoro-4-methoxyphenyl)imidazo[1,2-a]pyrazin-8-yl]amino]-2-methyl-N-(5-piperazin-1-ylpentyl)benzamide;hydrochlo-ride] | 120 nM
Cc1cc(Nc2nccn3c(-c4ccc(OCC#CCN)c(F)c4)cnc23)ccc1C(=O)N(C)C [Example 313, 4-[[3-[4-(4-aminobut-2-ynoxy)-3-fluorophenyl]imidazo[1,2-a]pyrazin-8-yl]amino]-N,N,2-trimethylbenzamide] | 1200 nM
Cc1cc(Nc2nccn3c(-c4ccc(OC(F)F)cc4)cnc23)ccc1C(=O)N(C)CC(=O)N1CCOCC1 [Example 279, 4-[[3-[4-(difluoromethoxy)phenyl]im-idazo[1,2-a]pyrazin-8-yl]amino]-N,2-dimethyl-N-(2-morpholin-4-yl-2-oxoethyl)benzamide] | 3400 nM
Cc1cc(Nc2nccn3c(-c4ccc(OC(F)F)cc4)cnc23)ccc1C(=O)NCCCCNC(=N)N [Example 83, 4-((3-(4-(difluoromethoxy)phenyl)imidazo[1,2-a]pyrazin-8-yl)amino)-N-(4-guanidinobutyl)-2-methylbenzamide] | 250 nM
COc1ccc(-c2cnc3c(Nc4ccc(C(=O)N(C)CCCN)c(C)c4)nccn23)cc1 [Example 34, N-(3-aminopropyl)-4-((3-(4-methoxyphenyl)imidazo [1,2-a]pyrazin-8-yl)amino)-N,2-dimethylbenzamide hydrochloride] | 1100 nM
COc1ccc(-c2cnc3c(Nc4ccc(C(=O)N(C)CCCN)cc4)nccn23)cc1 [Example 33, N-(3-aminopropyl)-4-((3-(4-methoxyphenyl)imidazo [1,2-a]pyrazin-8-yl)amino)-N-methylbenzamide hydrochloride] | 4900 nM
CCc1cc(Nc2nccn3c(-c4ccc(OC(F)F)cc4)cnc23)ccc1C(=O)NCCN1CCNCC1 [Example 212, 4-[[3-[4-(difluoromethoxy)phenyl]im-idazo[1,2-a]pyrazin-8-yl]amino]-2-ethyl-N-(2-piperazin-1-ylethyl)benzamide;hydrochlo-ride] | 640 nM
Cc1cc(Nc2nccn3c(-c4ccc(OC(F)F)cc4)cnc23)ccc1C(=O)N(C)CCC1CCN(CCC(=O)O)CC1 [Example 150, 3-(4-(2-(4-((3-(4-(difluoromethoxy)phenyl)imidazo[1,2-a]pyrazin-8-yl)amino)-N,2-dimethylbenzamido)ethyl)piperidin-1-yl)propanoic acid] | 650 nM
Cc1cc(Nc2nccn3c(-c4ccc(OC(F)F)cc4)cnc23)ccc1C(=O)N(C)CCCN1CCCCC1 [Example 257, 4-[[3-[4-(difluoromethoxy)phenyl]im-idazo[1,2-a]pyrazin-8-yl]amino]-N,2-dimethyl-N-(3-piperidin-1-ylpropyl)benzamide] | 3600 nM
COc1ccc(-c2cnc3c(Nc4ccc(C(=O)N(C)CCN)cc4)nccn23)cc1 [Example 264, N-(2-aminoethyl)-4-[[3-(4-methoxyphenyl)imidazo[1,2-a]pyrazin-8-yl]amino]-N-methylbenzamide; hydrochlo-ride] | 5100 nM
COc1ccc(-c2cnc3c(Nc4ccc(C(=O)NCC5CCOC5)c(C)c4)nccn23)cc1F (centres unmarked) [Example 70, 4-((3-(3-fluoro-4-methoxyphenyl)imidazo [1,2-a]pyrazin-8-yl)amino)-2-methyl-N-((tetrahydrofuran-3-yl)methyl)benzamide] | 700 nM
COc1ccc(-c2cnc3c(Nc4ccc(C(=O)NCCCCCCN)c(C)c4)nccn23)cc1 [Example 10, N-(6-aminohexyl)-4-((3-(4-methoxyphenyl)imidazo [1,2-a]pyrazin-8-yl)amino)-2-methylbenzamide hydrochloride] | 110 nM
COc1ccc(-c2cnc3c(Nc4ccc(C(=O)NCCC5(O)CCNCC5)c(C)c4)nccn23)cc1F [Example 281, 4-[[3-(3-fluoro-4-methoxyphenyl)imidazo[1,2-a]pyrazin-8-yl]amino]-N-[2-(4-hydroxypiperidin-4-yl)ethyl]-2-methylbenzamide;2,2,2-trifluoroacetic acid] | 930 nM
COc1ccc(-c2cnc3c(Nc4ccc(C(=O)NCCCN5CCNCC5)c(C)c4)nccn23)c(F)c1F [Example 67, 4-((3-(2,3-difluoro-4-methoxyphenyl)imidazo [1,2-a]pyrazin-8-yl)amino)-2-methyl-N-(3-(piperazin-1-yl)propyl)benzamide] | 120 nM
CNC(=O)c1ccc(Nc2nccn3c(-c4ccc(OC(F)F)cc4)cnc23)cc1C1CC1 [Example 167, 2-cyclopropyl-4-[[3-[4-(difluoromethoxy)phenyl]imidazo[1,2-a]pyrazin-8-yl]amino]-N-methyl-benzamide] | 1100 nM
Cc1cc(Nc2nccn3c(-c4ccc(OC(F)F)cc4)cnc23)ccc1C(=O)NCCCN1CCOCC1 [Example 209, 4-[[3-[4-(difluoromethoxy)phenyl]im-idazo[1,2-a]pyrazin-8-yl]amino]-2-methyl-N-(3-morpholin-4-ylpropyl)benzamide] | 590 nM
CCc1cc(Nc2nccn3c(-c4ccc(OCC#CCN)c(F)c4F)cnc23)ccc1C(=O)NCCCN [Example 287, 4-[[3-[4-(4-aminobut-2-ynoxy)-2,3-difluorophenyl]imidazo[1,2-a]pyrazin-8-yl]amino]-N-(3-aminopropyl)-2-ethylbenzamide] | 2900 nM

More lines, now with the values ahead:

IC90 | Compound
630 nM | CCc1cc(Nc2nccn3c(-c4ccc(Oc5ccc(OC)cn5)c(F)c4F)cnc23)ccc1C(=O)NCCNC(=O)[C@H](N)CCCNC(=N)N [Example 447, N-[2-[[(2R)-2-amino-5-guanidino-pentanoyl]amino]ethyl]-4-[[3-[2,3-difluoro-4-[(5-methoxy-2-pyridyl)oxy]phenyl]imidazo [1,2-a]pyrazin-8-yl]amino]-2-ethyl-benzamide; formic acid]
320 nM | CCc1cc(Nc2nccn3c(-c4ccc(OC)c(F)c4F)cnc23)ccc1C(=O)NCCNC(=O)[C@@H](N)CCCNC(N)=O [Example 332, N-[2-[[(2S)-2-amino-5-(carbamoylamino)pentanoyl]amino]ethyl]-4-[[3-(2,3-difluoro-4-methoxyphenyl)imidazo[1,2-a]pyrazin-8-yl]amino]-2-ethylbenzamide]
27 nM | CNC(=O)c1ccc(Nc2nccn3c(-c4ccc(OC)c(F)c4F)cnc23)cc1C [Example 538, 4-((3-(2,3-difluoro-4-methoxyphenyl)imidazo[1,2-a]pyrazin-8-yl)amino)-N,2-dimethylbenzamide]
62 nM | C#CCNC(=O)c1ccc(Nc2nccn3c(-c4ccc(OC)c(F)c4F)cnc23)cc1CC [Example 541, 4-[[3-(2,3-difluoro-4-methoxyphenyl)imidazo[1,2-a]pyrazin-8-yl]amino]-2-ethyl-N-prop-2-ynylbenzamide]
130 nM | COc1ccc(-c2cnc3c(Nc4ccc(C(=O)N[C@H](C)CN)c(C)c4)nccn23)c(F)c1F [Example 506, #N!-[(2#R!)-1-aminopropan-2-yl]-4-[[3-(2,3-difluoro-4-methoxyphenyl)imidazo[1,2-a]pyrazin-8-yl]amino]-2-methylbenzamide;dihydrochlo-ride]
34 nM | COc1ccc(-c2cnc3c(Nc4ccc(C(=O)NCCCCCCN)c(Cl)c4)nccn23)c(F)c1F [Example 495, N-(6-aminohexyl)-2-chloro-4-((3-(2,3-difluoro-4-methoxyphenyl)imidazo[1,2-a]pyrazin-8-yl)amino)benzamide hydrochloride]
150 nM | CC[C@@]1(O)CN[C@H](C(=O)NCCNC(=O)c2ccc(Nc3nccn4c(-c5ccc(OC)c(F)c5F)cnc34)cc2C)C1 [Example 371, (2S,4S)-N-[2-[[4-[[3-(2,3-difluoro-4-methoxyphenyl)imidazo[1,2-a]pyrazin-8-yl]amino]-2-methylbenzoyl]amino]ethyl]-4-ethyl-4-hydroxypyrrolidine-2-carboxamide]
600 nM | Cc1cc(Nc2nccn3c(-c4ccc(OCC#N)c(F)c4F)cnc23)ccc1C(=O)NC[C@H](N)CNC(=O)[C@@H]1C[C@@H](O)CN1 [Example 470, (2S,4R)-N-[(2S)-2-amino-3-[[4-[[3-[4-(cyanomethoxy)-2,3-difluoro-phenyl]imidazo[1,2-a]pyrazin-8-yl]amino]-2-methyl-benzoyl]amino]propyl]-4-hydroxy-pyrrolidine-2-carboxamide; formic acid]
24 nM | N#CCOc1ccc(-c2cnc3c(Nc4ccc(C(=O)NCCCCCCCN)c(Cl)c4)nccn23)c(F)c1F [Example 521, N-(7-aminoheptyl)-2-chloro-4-((3-(4-(cyanomethoxy)-2,3-difluorophenyl)imidazo[1,2-a]pyrazin-8-yl)amino)benzamide]
650 nM | CCc1cc(Nc2nccn3c(-c4ccc(OC)c(F)c4F)cnc23)ccc1C(=O)N[C@@H](C)C(=O)NCCNC [Example 567, 4-[[3-(2,3-difluoro-4-methoxy-phenyl)imidazo[1,2-a]pyrazin-8-yl]amino]-2-ethyl-N-[(1S)-1-methyl-2-[2-(methylamino)ethylamino]-2-oxo-ethyl]benzamide]
150 nM | CCc1cc(Nc2nccn3c(-c4ccc(OC(F)F)c(F)c4F)cnc23)ccc1C(=O)NCCC(=O)NCCN(C)C [Example 325, 4-[[3-[4-(difluoromethoxy)-2,3-difluorophenyl]imidazo[1,2-a]pyrazin-8-yl]amino]-N-[3-[2-(dimethylamino)ethylamino]-3-oxopropyl]-2-ethylbenzamide]
